Several values for one entry are separate records, joined by “and”; a condition that tells them apart may be missing. Identical values can stand only once. Like-named read-outs stand apart in the source and are kept apart here.
Tests used:
[1] = system: EAE mice optic tract; assay: Optic tract IHC in EAE; type: in vivo, mouse
Text: (§1) Animal Perfusions, tissue preparation, and IHC: Mice were deeply anesthetized and euthanized with isoflurane and intracardially perfused with ice‐cold PBS followed by 10% formalin in PBS (Fisher Scientific, Hampton, NH). Eyes, optic nerves, and brain were collected and processed for IHC as previously described[23],[28]. Antibody details are listed in Supplementary Table S6.
(§2) Imaging and Quantification: Retina, optic nerve, and brain sections were imaged using an Olympus BX61 spinning disk confocal microscope with 10× and 40× objectives[23],[28]. Z-stack images were captured and processed using Slidebook 6 and cellSense software. Immunofluorescence intensity and cell counts were quantified using NIH ImageJ, and statistical analysis was performed with GraphPad Prism.
Treatment with K102 alleviated EAE-induced demyelination relative to vehicle-treated mice.
as §1, with “Perfusions,” for “Animal Perfusions,”, “anesthetized” for “anesthetized and euthanized”, “described(8, 9).” for “described[23],[28].”
Imaging and Quantification: Retina, optic nerve, and brain sections were imaged using an Olympus BX61 spinning disk confocal microscope equipped with 10x and 40x Super Apochromat objectives (Olympus America Inc., Cypress, CA) connected to a camera (Hamamatsu Orca‐R2). Z‐stack images were acquired, and projection images were compiled using Slidebook 6 and cellSense software (Intelligent Imaging Innovations Inc, Santa Monica, CA). Immunofluorescence intensity and cell numbers were assessed with NIH ImageJ software (v1. 50i http://rsb.info.nih.gov/ij/) and quantified. Results from all counts were analyzed in GraphPad Prism for statistical significance.

[2] = Oral PK of K102 at 40 mg/kg in female monkeys; type: in vivo, cynomolgus monkey; details: female monkey, PO 40 mg/kg, mean
[3] = Plasma protein binding (human)
[4] = Pharmacokinetics and brain/plasma distribution in CD1 mice (IV, SC, PO); details: CD1 mouse
Procedure: Mice were dosed intravenously at 5 mg/kg, subcutaneously at 10 mg/kg, and orally at 25 mg/kg.
Only values above the LLOQ.(0.3 ng/mL) were plotted.

[5] = target: CYP2C19 (Homo sapiens, UniProt P33261); assay: CYP inhibition; details: test compounds at 10 μM; substrate Mephenytoin
[6] = target: T1, CYP2D6 (Homo sapiens, UniProt P10635); assay: CYP inhibition; details: test compounds at 10 μM; substrate Dextromethorphan
[7] = Plasma protein binding (mouse)
[8] = target: CYP1A2 (Homo sapiens, UniProt P05177); assay: CYP inhibition; details: test compounds at 10 μM; substrate Phenacetin
[9] = target: CYP2C9 (Homo sapiens, UniProt P11712); assay: CYP inhibition; details: test compounds at 10 μM; substrate Diclofenac Sodium
[10] = Oral PK of K102 at 40 mg/kg in female rats; type: in vivo, Sprague–Dawley rat; details: female rat, PO 40 mg/kg, mean
[11] = system: EAE mice retina; assay: Retina IHC in EAE; type: in vivo, mouse
Text: as §1, §2
RGC degeneration and pronounced GFAP immunoreactivity is evident in both MS and EAE[23],[28],[35],[36]. To quantify the number of RGCs, neuronal nuclear marker (NeuN) was used. […]
Imaging and Quantification: Retina, optic nerve, and brain sections were imaged using an Olympus BX61 spinning disk confocal microscope equipped with 10x and 40x Super Apochromat objectives (Olympus America Inc., Cypress, CA) connected to a camera (Hamamatsu Orca‐R2). […] Immunofluorescence intensity and cell numbers were assessed with NIH ImageJ software (v1. 50i http://rsb.info.nih.gov/ij/) and quantified. […]

[12] = plasma
[13] = microsomes
[14] = plasma; remark: listed apart in the source
[15] = system: 1A2, 2B6, 2C9, 2C19, 2D6, and 3A4M/T; assay: CYP inhibition panel summary; type: in vitro ADME, human; details: 10 µM
[16] = target: T1, CYP2D6; details: 10 µM

T1 sequence (P10635 whole entry): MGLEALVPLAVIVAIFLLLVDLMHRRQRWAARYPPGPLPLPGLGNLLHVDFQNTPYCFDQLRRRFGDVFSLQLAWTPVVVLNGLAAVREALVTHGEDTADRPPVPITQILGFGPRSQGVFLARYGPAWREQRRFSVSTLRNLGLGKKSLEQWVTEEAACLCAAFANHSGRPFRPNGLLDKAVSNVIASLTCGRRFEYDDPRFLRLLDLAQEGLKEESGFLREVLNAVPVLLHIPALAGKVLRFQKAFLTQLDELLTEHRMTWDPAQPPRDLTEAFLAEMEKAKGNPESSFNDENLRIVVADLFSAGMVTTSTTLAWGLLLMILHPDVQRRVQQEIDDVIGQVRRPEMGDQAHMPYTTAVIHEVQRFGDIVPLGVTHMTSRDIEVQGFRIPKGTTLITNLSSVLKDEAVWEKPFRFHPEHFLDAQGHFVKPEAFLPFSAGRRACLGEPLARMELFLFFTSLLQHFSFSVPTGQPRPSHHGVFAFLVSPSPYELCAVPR
Chain of CYP1A2 (P05177 whole entry): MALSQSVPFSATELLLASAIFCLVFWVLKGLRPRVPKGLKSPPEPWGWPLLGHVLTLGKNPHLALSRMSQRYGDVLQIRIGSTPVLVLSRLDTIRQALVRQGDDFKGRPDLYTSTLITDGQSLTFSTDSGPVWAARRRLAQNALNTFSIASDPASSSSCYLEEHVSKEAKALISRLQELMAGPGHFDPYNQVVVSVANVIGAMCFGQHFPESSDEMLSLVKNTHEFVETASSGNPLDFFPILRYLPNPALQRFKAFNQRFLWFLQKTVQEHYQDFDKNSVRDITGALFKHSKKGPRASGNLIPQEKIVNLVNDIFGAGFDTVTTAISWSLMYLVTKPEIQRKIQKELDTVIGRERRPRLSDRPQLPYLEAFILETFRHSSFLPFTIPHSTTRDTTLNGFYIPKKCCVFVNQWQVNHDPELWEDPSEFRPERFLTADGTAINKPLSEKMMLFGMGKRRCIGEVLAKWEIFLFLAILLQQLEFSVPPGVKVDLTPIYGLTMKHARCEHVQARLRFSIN
Chain of CYP2C9 (P11712 whole entry): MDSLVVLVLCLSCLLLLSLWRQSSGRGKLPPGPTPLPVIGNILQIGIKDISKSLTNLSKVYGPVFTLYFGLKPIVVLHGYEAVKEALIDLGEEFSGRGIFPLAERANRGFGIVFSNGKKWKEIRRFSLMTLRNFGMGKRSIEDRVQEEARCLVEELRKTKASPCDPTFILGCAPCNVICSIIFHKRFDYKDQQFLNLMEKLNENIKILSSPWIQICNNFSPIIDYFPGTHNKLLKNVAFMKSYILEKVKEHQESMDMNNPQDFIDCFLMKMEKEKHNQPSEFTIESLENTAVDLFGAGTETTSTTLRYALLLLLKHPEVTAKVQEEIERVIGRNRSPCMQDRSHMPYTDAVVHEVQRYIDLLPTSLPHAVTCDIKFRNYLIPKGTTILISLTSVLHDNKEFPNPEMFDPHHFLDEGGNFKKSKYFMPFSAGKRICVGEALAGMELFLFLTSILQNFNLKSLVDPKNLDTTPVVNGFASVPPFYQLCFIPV
Chain of CYP2C19 (P33261 whole entry): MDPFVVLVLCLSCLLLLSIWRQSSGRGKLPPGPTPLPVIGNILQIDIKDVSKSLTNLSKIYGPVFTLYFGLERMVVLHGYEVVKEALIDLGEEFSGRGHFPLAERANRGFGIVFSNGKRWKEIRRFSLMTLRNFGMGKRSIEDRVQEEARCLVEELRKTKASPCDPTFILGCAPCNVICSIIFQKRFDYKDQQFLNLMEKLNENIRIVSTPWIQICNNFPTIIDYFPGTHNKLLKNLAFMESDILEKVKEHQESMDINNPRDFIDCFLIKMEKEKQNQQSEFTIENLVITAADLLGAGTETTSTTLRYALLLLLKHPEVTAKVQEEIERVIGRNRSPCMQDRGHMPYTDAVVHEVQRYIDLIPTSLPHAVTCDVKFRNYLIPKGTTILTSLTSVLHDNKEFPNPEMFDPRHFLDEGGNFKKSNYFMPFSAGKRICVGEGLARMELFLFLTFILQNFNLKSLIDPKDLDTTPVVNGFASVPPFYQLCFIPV

Cc1cc(O)ccc1-n1nc2ccc(O)cc2c1Cl [Compound K102, IndCl-o-Me]
GFAP, mean value [1]: significantly reduced | Iba1, mean value [1]: significantly reduced | MBP, mean value [1]: alleviated | NFM, mean value [1]: significantly increased | SARM1, mean value [1]: did not produce a significant change | GFAP, mean value ([1]; listed as 102): 14.14 | Iba1, mean value ([1]; listed as 102): 9.623 | MBP, mean value ([1]; listed as 102): 27.62 | NFM, mean value ([1]; listed as 102): 18.64 | SARM1, mean value ([1]; listed as 102): 11.45 | AUCInf/D [2]: 59.3 kg·ng·h/mL/mg | AUClast [2]: 2373.0 ng·h/mL | Cmax [2]: 355.3 ng/mL | Tmax [2]: 79.8 min | Protein Binding (% Bound) Human [3]: 97.08% | Kp AUC0-t (brain/plasma) ([4]; IV 5 mg/kg): 0.43 | Kp AUClast (brain/plasma) ([4]; IV 5 mg/kg): 0.41 | Ratio of Cmax (brain/plasma) ([4]; IV 5 mg/kg): 0.54 | Vss_obs ([4]; IV 5 mg/kg): 5.74 L/kg | AUC0-t ([4]; IV 5 mg/kg, brain): 211 ng·h/g | T1/2 ([4]; IV 5 mg/kg, brain): 52.2 min | Tmax ([4]; IV 5 mg/kg, brain): 6 min | AUC0-t ([4]; IV 5 mg/kg, plasma): 491 ng·h/mL | C0 or max ([4]; IV 5 mg/kg, plasma): 3256 ng/mL | Cl_obs ([4]; IV 5 mg/kg, plasma): 169 mL/min/kg | T1/2 ([4]; IV 5 mg/kg, plasma): 55.2 min | Kp AUC0-t (brain/plasma) ([4]; PO 25 mg/kg): 0.40 | Ratio of Cmax (brain/plasma) ([4]; PO 25 mg/kg): 0.59 | AUC0-t ([4]; PO 25 mg/kg, brain): 391 ng·h/g | Cmax ([4]; PO 25 mg/kg, brain): 279 ng/g | Tmax ([4]; PO 25 mg/kg, brain): 15 min | T1/2 (brain retention) ([4]; PO 25 mg/kg, brain, 25 mg/kg): 288 min and 287 min | AUC0-t ([4]; PO 25 mg/kg, plasma): 991 ng·h/mL | Cmax ([4]; PO 25 mg/kg, plasma): 471 ng/mL | T1/2 ([4]; PO 25 mg/kg, plasma): 611.4 min | Tmax ([4]; PO 25 mg/kg, plasma): 4.98 min | F (Bioavailability) ([4]; PO 25 mg/kg, plasma, 25 mg/kg): 40% and 40.4% | AUCinf plasma ([4]; PO 25 mpk): 991 ng·h/mL | Brain/Plasma Ratio(%) ([4]; PO 25 mpk): 40% | Kp AUC0-t (brain/plasma) ([4]; SC 10 mg/kg): 0.35 | Kp AUClast (brain/plasma) ([4]; SC 10 mg/kg): 0.35 | Ratio of Cmax (brain/plasma) ([4]; SC 10 mg/kg): 0.24 | AUC0-t ([4]; SC 10 mg/kg, brain): 477 ng·h/g | Cmax ([4]; SC 10 mg/kg, brain): 218 ng/g | Tmax ([4]; SC 10 mg/kg, brain): 30 min | T1/2 (brain retention) ([4]; SC 10 mg/kg, brain, 10 mg/kg): 120 min | T1/2 (brain retention) ([4]; SC 10 mg/kg, brain, listed as IndCl-o-Me, 10 mg/kg): 118 min | AUC0-t ([4]; SC 10 mg/kg, plasma): 1385 ng·h/mL | Cmax ([4]; SC 10 mg/kg, plasma): 919 ng/mL | T1/2 ([4]; SC 10 mg/kg, plasma): 134 min | Tmax ([4]; SC 10 mg/kg, plasma): 4.98 min | AUCinf brain ([4]; SC 10 mpk): 480 ng·h/g | AUCinf plasma ([4]; SC 10 mpk): 1390 ng·h/mL | Brain/Plasma Ratio(%) ([4]; SC 10 mpk): 35% | CYP Inhibition Percentage CYP2C19 [5]: 50.50% | CYP Inhibition Percentage CYP2D6 [6]: 18.26% | Protein Binding (% Bound) Mouse [7]: 96.81% | CYP Inhibition Percentage CYP1A2 [8]: 26.19% | CYP Inhibition Percentage CYP2C9 [9]: 36.09% | AUCInf/D [10]: 235.1 kg·ng·h/mL/mg | AUClast [10]: 9403 ng·h/mL | Cmax [10]: 1657 ng/mL | Tmax [10]: 15 min

Oc1ccc(-n2nc3ccc(O)cc3c2Cl)c(O)c1 [Compound K110, IndCl-o-OH]
GFAP, mean value [11]: 6.695 | NeuN (RGCs), mean value [11]: 6.167 | Protein Binding (% Bound) Mouse [12]: 91.79% | Liver Microsome Stability (Mouse) CLint [13]: 35.28 µL/min/mg protein | Liver Microsome Stability (Mouse) t1/2 [13]: 20.06 min | Liver Microsome Stability (Mouse) % Remaining (30 min) ([13]; 0.5 h): 35.72% | Protein Binding (% Bound) Human [14]: 93.27% | CYP inhibition, all other isoforms of the panel [15]: < 50% | CYP Inhibition Percentage CYP2D6 [16]: 5.63%

— PMC12508063, “Chloroindazole based estrogen receptor β ligands with favorable pharmacokinetics promote functional remyelination and visual recovery” (Scientific Reports, 2025)
